From patent US6172205A, “Synthetic process toward total synthesis of eleutherobin and its analogues and uses thereof” (The Trustees of Columbia in the City of New York, priority 1998, dated 2001)
Entries after “also recorded” stand apart in the source; their conditions may differ.

What was measured:
[1] = test system: cellular microtubules, NIH 3T3 cells; assay: Microtubule bundle formation by immunofluorescence; format: cell-based; conditions: 2 μM, 5.5 h, 37 °C
Protocol: FIG. 9 immunofluorescence images NIH3T3 cells labeled with β-tubulin antibody following exposure to different drugs. A)DMSO; B)2 μM Taxol; C)2 μM eleutherobin; D)2 μM neo-eleutherobin; E)2 μM SKBII.294; F)2 μM SKBIII.13.
Illustrates the effects of eleutherobin and its derivatives on the morphology of cellular microtubules following exposure of cells to 2 μM of each compound for 5.5 h at 37° C. […] The number of micotic asters correlated with the extent of microtubule bundling in interphase cells.
(§1) NIH 3T3 cells were grown to subconfluency on glass converslips in 35 mm plastic petri dishes. Cells were exposed to 2 μM of Taxol and each of the experimental compounds for 5.5 h at 37° C., rinsed twice in PBS and extracted with 0.5% Triton-X-100 in microtubule stabilizing buffer (PEM) (100 mM PIPES, 2 mM EGTA and 2 mM MgCl2, pH 6.8) for 4 min. Following a wash in PEM, the cells were fixed for 40 min at room temperature in 3% formaldehyde in PEM followed by incubation in 0.1 M glycine in PBS for 10 min and washing (four times) in PEM containing 5 μM EGTA. Following blocking in 20% normal goat serum (NGS) for 30 min at room temperature, cells were incubated for 1 h at 37° C. with a 1:100 dilution of β-tubulin mAb diluted in 10% NGS, washed twice in 1% BSA, once in PBS and three times in 1% BSA. Cells were then incubated in a 1:200 dilution of the secondary fluorophore antibody, IndocarbocyanineCY3 (Jackson Immunoresearch Laboratories Inc., Pa.) in 20% NGS for 20 min at room temperature. Finally cells were washed three times in 1% BSA and the dried slides mounted in 30% glycerol in PBS containing […]-phenylene diamine (1 mg/ml). Fixed slides were examined using a Zeiss Axioskop microscope.

[2] = test system: Human non-small cell lung carcinoma cells, A549; assay: Cytotoxicity by counting cells after 72 h, Taxol-sensitive cells; format: cell-based; conditions: for IC50: Homo sapiens, A549, 72 h; for cytotoxicity (in words): sensitive cell lines (A549, SKOV3)
Protocol: Taxol-resistant and sensitive cell lines were seeded into 12-well plates at a density of 5×10^4 cells per well and allowed a period of 12 h for attachment prior to treatment. […] Cells were then trypsinized and counted (Coulter counter model ZF0031, Coulter Corp., Miami, Fla.).

[3] = test system: tubulin / microtubule protein; assay: Tubulin polymerization by turbidity at 350 nm in the absence of GTP; format: biochemical, calf; conditions: 10 μM, relative to eleutherobin
Protocol: Eleutherobin and its derivatives were synthesized as described (18,19). Taxol was obtained from the Drug Development Branch, National Cancer Institute (Bethesda, Md.). All compounds were dissolved in dimethyl sulfoxide (Sigma Chemical Co., St. Louis, Mo.) at stock concentrations of 5 mM and stored at -20° C. All control samples contained an equal volume of DMSO. GTP was obtained from Sigma Chemical Co. And dissolved in sterile distilled water at a concentration of 10 mM and stored at -20° C. Microtubule protein was purified from calf brains by two cycles of temperature-dependent assembly and disassembly (20) and stored in liquid nitrogen prior to use. The anti-mouse β-tubulin monoclonal antibody T-4026 was obtained from Sigma Chemical Co.
The ability of each compound to polymerize tubulin was evaluated by recording the change in turbidity of microtubule protein at 350 nm for 80 min in a spectrophotometer (UVIKON, Research Instruments Int., SD, Calif.). One mg of purified microtubule protein was diluted in assembly buffer containing 0.1 M MES, 1 mM EGTA, 0.5 mM MgCl2 and 3 M glycerol, pH 6.6. All compounds were evaluated at a concentration of 10 μM at 37° C. […] Microtubule stability was assessed by the addition of 10 mM Ca^++. changes from t=0-10 min were used to calculate initial slopes from the linear portion of each curve. These values were used to calculate the activity of each compound (relative to the activity of Taxol which was assigned a value of 100%).
The polymerization activity of these compounds was also assessed by determining the slope of the linear portion of each curve at A350 nm (t=0-10 min), and expressing this relative to Taxol (which was assigned a value of 100% (FIG. 8). The order of activity of eleutherobin and derivatives using this method, corroborates the results obtained from cytotoxicity studies.

[4] = test system: Human ovarian carcinoma cells SKOV3; assay: Cytotoxicity by counting cells after 72 h, Taxol-sensitive cells; format: cell-based; conditions: SK-OV-3, 72 h
Protocol: (§2) Human non-small cell lung carcinoma cells, A549, were maintained in RPMI 1640 containing 10% fetal bovine serum and 1% penicillin-streptomycin (Gibco Laboratories, Grand Island N.Y.) at 37° C. in 7% CO2. The Taxol-resistant cell line A549-T12 was selected for resistance to Taxol and maintained in a final concentration of 12 nM drug (21). Human ovarian carcinoma cells SKOV3 and the MDR variant SKVBL (obtained from Dr. V. Ling) were maintained in α-mem plus ribonucleotides, deoxynucleotides, 15% fetal bovine serum and 1% penicillin-streptomycin (Gibco Laboratories) at 37° C. in 5% CO2. SKVBL cells were maintained in […] vinblastine (Sigma Chemical Co.).
(§3) Taxol-resistant and sensitive cell lines were seeded into 12-well plates at a density of 5×10^4 cells per well and allowed a period of 12 h for attachment prior to treatment. Cells were exposed to 10-fold serial dilutions of each compound (10^-10 to 10^-6 M) for 72 h. Cells were then trypsinized and counted (Coulter counter model ZF0031, Coulter Corp., Miami, Fla.). The IC50 was determined by plotting cell number against log of the drug concentration and this was used to determine the concentration of compound resulting in 50% growth inhibition compared to untreated cells. Each cell line was assayed in a minimum of 3 independent experiments with each compound and the results expressed as the mean IC50.
(§4) ^a Cytotoxicity determined by counting cells after 72 h drug exposure.

[5] = SKBII.294 and 298 structures compared; cited from earlier work
[6] = Overall biological activity, all parameters tested
Protocol: as §3
The ability of each compound to polymerize tubulin was evaluated by recording the change in turbidity of microtubule protein at 350 nm for 80 min in a spectrophotometer (UVIKON, Research Instruments Int., SD, Calif.). One mg of purified microtubule protein was diluted in assembly buffer containing 0.1 M MES, 1 mM EGTA, 0.5 mM MgCl2 and 3 M glycerol, pH 6.6. All compounds were evaluated at a concentration of 10 μM at 37° C. GTP was used at a final concentration of 1 mM. Microtubule stability was assessed by the addition of 10 mM Ca^++. changes from t=0-10 min were used to calculate initial slopes from the linear portion of each curve. These values were used to calculate the activity of each compound (relative to the activity of Taxol which was assigned a value of 100%).
as §1

[7] = Solubility compared to eleutherobin; format: physicochemical
[8] = test system: A549-T12 (Taxol-resistant A549); assay: Cytotoxicity by counting cells after 72 h, Taxol-resistant cells; format: cell-based, human
Protocol: as §2, §3
(§5) The cytotoxic efficacy of eleutherobin and its derivatives (FIG. 6) was evaluated in two drug sensitive human cancer cell lines and their Taxol-resistant counterparts. The results are summarized in Table I in order of decreasing potency. […] The Taxol-resistant cell line SKVBL overexpresses high levels of P-glycoprotein (22). […] The only difference between the two agents is the enantiomeric relationship in the carbohydrate (2'-acetylarabinose) sector (FIG. 6). […] This cell line expressed high levels of MDR1 resulting in Taxol-resistance equal or greater than 1666 -fold compared to the Taxol-sensitive SKOV3 cell line.
as §4

P-glycoprotein = P-glycoprotein substrate behaviour inferred from resistance of SKVBL cells; format: cell-based, human
Protocol: as §2, §3, §5

[9] = test system: SKVBL (MDR variant of SKOV3); assay: Cytotoxicity by counting cells after 72 h, MDR variant cells; format: cell-based, human
Protocol: as §2, §3, §5, §4

SMILES	microtubule bundle formation (in words) [1]	IC50 [2]	cytotoxicity (in words) [2]	microtubule polymerization activity relative to eleutherobin [3]	IC50 [4]	activity reported for compounds with the same structures (in words) [5]	biological activity (in words) [6]	solubility (in words) [7]	fold resistance relative to the parental cell line ([8]; A549-T12 vs A549, 4320 min)	IC50 ([8]; Homo sapiens, Lung Carcinoma A549, Resistant (A549-T12), 72 h, mean of at least three independent experiments)	P-glycoprotein substrate (in words) (P-glycoprotein)	IC50 ([9]; Homo sapiens, SK-OV-3, Ovarian Carcinoma SKOV3, Resistant (SKVBL), 72 h, mean of at least three independent experiments)	cross-resistance in SKVBL (in words) ([9]; MDR1 expressing cells, high P-glycoprotein)	fold resistance relative to the parental cell line ([9]; SKVBL vs SKOV3)
CO[C@]12C=C[C@](C)(O1)[C@@H](OC(=O)/C=C/c1cn(C)cn1)C[C@H]1C(C)=CC[C@H](C(C)C)[C@H]1C=C2CO [SKBII.298]	induced less bundle formation than neo-eleutherobin	1060 nM	considerably less cytotoxic (in the μM range)	36%	> 5000 nM	equal activity	the least active compound in this sub-group	reduced solubility compared to eleutherobin						
CO[C@]12C=C[C@](C)(O1)[C@@H](OC(=O)/C=C/c1cn(C)cn1)C[C@H]1C(C)=CC[C@H](C(C)C)[C@H]1C=C2COC(C)=O [SKBII.294]	reduced bundle formation in cultured cells; also recorded: induced less bundle formation than neo-eleutherobin	152 nM	less cytotoxic than either eleutherobin or neo-eleutherobin; also recorded: more cytotoxic than to SKBII.296	54%	307 nM	equal activity		reduced solubility compared to eleutherobin	1.1 fold	162 nM	considerably less attractive for P-glycoprotein compared to eleutherobin and neo-eleutherobin	1040 nM	essentially not cross-resistant	3.4 fold
